Data from ChEMBL document CHEMBL3808315, “Discovery of Pyrazolopyridones as a Novel Class of Gyrase B Inhibitors Using Structure Guided Design” (ACS Med Chem Lett, 2016).
In brackets after ≈: the same amount, converted by molar mass.

Experiments:
DNA gyrase subunit B = DNA gyrase subunit B (Staphylococcus aureus, UniProt P0A0K8); assay: Inhibition of Staphylococcus aureus DNA gyraseB ATPase activity using linear pBR322 DNA substrate incubated for 30 mins by fluorescence polarization assay
Staphylococcus aureus [1] = assay: Antibacterial activity against methicillin-susceptible Staphylococcus aureus 42 incubated for 18 to 24 hrs by broth microdilution assay; assay type: functional
[2] = molecular target: DNA topoisomerase 4 subunit B (Staphylococcus aureus, UniProt P0C1S7); assay: Inhibition of Staphylococcus aureus DNA parE ATPase activity incubated for 30 mins by fluorescence polarization assay
Enterococcus faecium = assay: Antibacterial activity Enterococcus faecium ATCC 6569 incubated for 18 to 24 hrs by broth microdilution assay; assay type: functional
Staphylococcus aureus [3] = assay: Antibacterial activity against methicillin-resistant Staphylococcus aureus 1118 incubated for 18 to 24 hrs by broth microdilution assay; assay type: functional
Staphylococcus aureus [4] = assay: Antibacterial activity against ciprofloxacin/methicillin-resistant Staphylococcus aureus 1721 incubated for 18 to 24 hrs by broth microdilution assay; assay type: functional
Streptococcus pneumoniae = assay: Antibacterial activity Streptococcus pneumoniae ATCC 6303 incubated for 18 to 24 hrs by broth microdilution assay; assay type: functional

IC50 (DNA gyrase subunit B) [nM]	MIC (Staphylococcus aureus [1]) [µg/mL]	Compound	also measured
270	> 32	O=c1ccc2c(-c3cnc(-c4cccnc4)s3)n[nH]c2[nH]1	
3250		Cc1cc(=O)[nH]c2[nH]nc(-c3cnc(-c4cccnc4)s3)c12	
1320		O=c1cc(-c2ccccc2)c2c(-c3cnc(-c4cccnc4)s3)n[nH]c2[nH]1	
15	0.5 (≈ 1.31 µM)	CCCn1c(=O)ccc2c(-c3cnc(-c4ccc(N(C)C)nc4)s3)n[nH]c21	
9	4 (≈ 11.9 µM)	CCCn1c(=O)ccc2c(-c3ncc(-c4cccnc4)s3)n[nH]c21	
6	0.25 (≈ 0.632 µM)	CCCn1c(=O)ccc2c(-c3nc(C(=O)OC)c(-c4cccnc4)s3)n[nH]c21	
13	4 (≈ 9.79 µM)	CCCn1c(=O)ccc2c(-c3nc(C(=O)N(C)C)c(-c4cccnc4)s3)n[nH]c21	
23	1 (≈ 2.64 µM)	CCCn1c(=O)ccc2c(-c3cnc(-c4ccc(C(C)C)nc4)s3)n[nH]c21	
< 8	1 (≈ 2.09 µM)	CCCn1c(=O)ccc2c(-c3cnc(-c4ccc(C(=O)NCCN(CC)CC)nc4)s3)n[nH]c21	
279	> 32	CCCn1c(=O)ccc2c(-c3cncs3)n[nH]c21	
51	> 32	Cn1c(=O)ccc2c(-c3cnc(-c4cccnc4)s3)n[nH]c21	
15	0.5 (≈ 1.26 µM)	CCCn1c(=O)ccc2c(-c3cnc(-c4ccc(C(=O)OC)nc4)s3)n[nH]c21	
564	> 32	O=c1ccc2c(-c3cnc(-c4cccnc4)s3)n[nH]c2n1CCO	
35	2 (≈ 5.93 µM)	CCn1c(=O)c(C)cc2c(-c3cnc(-c4cccnc4)s3)n[nH]c21	
8	2 (≈ 4.9 µM)	CCCn1c(=O)ccc2c(-c3cnc(-c4ccc(C(=O)N(C)C)nc4)s3)n[nH]c21	
4	0.25 (≈ 0.745 µM)	C=CCn1c(=O)ccc2c(-c3cnc(-c4cccnc4)s3)n[nH]c21	
10	4 (≈ 8.9 µM)	CCCn1c(=O)ccc2c(-c3cnc(-c4ccc(CN5CCN(C)CC5)nc4)s3)n[nH]c21	
9	4 (≈ 9.47 µM)	CCCn1c(=O)ccc2c(-c3cnc(-c4ccc(CN(CC)CC)nc4)s3)n[nH]c21	
< 8	0.25 (≈ 0.68 µM)	CCCn1c(=O)ccc2c(-c3cnc(-c4ccc(CO)nc4)s3)n[nH]c21	
< 8	0.5 (≈ 1.15 µM)	CCCn1c(=O)ccc2c(-c3cnc(-c4ccc(CN5CCOCC5)nc4)s3)n[nH]c21	
< 8	0.25 (≈ 0.711 µM)	CCCn1c(=O)ccc2c(-c3cnc(-c4ccc(C)nc4)s3)n[nH]c21	
13	2 (≈ 4.05 µM)	CCCn1c(=O)ccc2c(-c3cnc(-c4ccc(C(=O)NCCN5CCOCC5)nc4)s3)n[nH]c21	
192	> 32	CCCn1c(=O)ccc2c(C3CCN(c4nc(C(=O)O)c(C)s4)CC3)n[nH]c21	
202	> 32	CCn1c(=O)c(CO)cc2c(-c3cnc(-c4cccnc4)s3)n[nH]c21	
8	2 (≈ 4.59 µM)	CCCn1c(=O)ccc2c(-c3cnc(-c4ccc(N5CCN(C)CC5)nc4)s3)n[nH]c21	
3350	> 32	CCn1c(=O)c(C(=O)NC)cc2c(-c3cnc(-c4cccnc4)s3)n[nH]c21	

Compound	IC50 (DNA gyrase subunit B) [nM]	MIC (Staphylococcus aureus [1]) [µg/mL]	also measured
CCn1c(=O)ccc2c(-c3cnc(-c4cccnc4)s3)n[nH]c21	20	2 (≈ 6.18 µM)	IC50 [2]: 746 nM; MIC (Enterococcus faecium): 4 µg/mL (≈ 12.4 µM); MIC (Staphylococcus aureus [3]): 2 µg/mL (≈ 6.18 µM); MIC (Staphylococcus aureus [4]): 4 µg/mL (≈ 12.4 µM); MIC (Streptococcus pneumoniae): 4 µg/mL (≈ 12.4 µM)
CCCn1c(=O)ccc2c(-c3cnc(-c4cccnc4)s3)n[nH]c21	6	0.06 (≈ 0.178 µM)	IC50 [2]: 183 nM; MIC (Enterococcus faecium): 0.125 µg/mL (≈ 0.37 µM); MIC (Staphylococcus aureus [3]): 0.06 µg/mL (≈ 0.178 µM); MIC (Staphylococcus aureus [4]): 0.06 µg/mL (≈ 0.178 µM); MIC (Streptococcus pneumoniae): 0.25 µg/mL (≈ 0.741 µM)
COc1c(N2C[C@@H]3CCCN[C@@H]3C2)c(F)cc2c(=O)c(C(=O)O)cn(C3CC3)c12 [MOXIFLOXACIN]		0.06 (≈ 0.149 µM)	
